Source: patent US6407096B1, “Benzene fused heterocyclic derivatives having thromboxane A2 receptor antagonistic activity and prostaglandin I2 Agonistic activity and application thereof” (Toray Industries, Inc., priority 1998, dated 2002)
pIC50, pKi: −log10 of the molar value.

Assays:
[1] = tested on: platelet-rich plasma (PRP), platelet aggregation induced by TXA2 agonist U-46619; assay: Platelet aggregation inhibiting action 1 (U-46619-induced aggregation in PRP); format: cell-based; settings: human PRP, aggregation induced by U-46619 (final 1 to 4 μM), compound added 1 minute before
Experimental: (§1) The blood collected from the human medial cubital vein was centrifuged at 800 rpm for 10 minutes, and the upper portion was collected as platelet-rich plasma (PRP). PRP was dispensed to small test tubes, and TXA2 agonist U-46619 was added thereto (the final concentration 1 to 4 μM) to induce platelet aggregation. The degree of platelet aggregation was measured as a change in turbidity by a platelet aggregation measuring device (Hematracer 1, Nikko Bioscience). Each compound was added 1 minute before the addition of U-46619, and a concentration at which aggregation was 50% inhibited was calculated as a IC50 value.

[2] = tested on: platelet-rich plasma (PRP), platelet aggregation induced by ADP; assay: Platelet aggregation inhibiting action 2 (ADP-induced aggregation in PRP); format: cell-based; settings: human PRP, aggregation induced by ADP (final 1 to 10 μM), compound added 1 minute before
Experimental: as §1, with “was centrifuged 800 rpm” for “was centrifuged at 800 rpm”, “tubes, and ADP was added” for “tubes, and TXA2 agonist U-46619 was added”, “1 to 10 μM) to” for “1 to 4 μM) to”, “addition of ADP, and a” for “addition of U-46619, and a”, “calculated as IC50 value.” for “calculated as a IC50 value.”

TXA2 receptor = target: T1, TXA2 receptor (Homo sapiens, UniProt P21731); assay: TXA2 receptor binding test ([3H]SQ29548, platelet membrane fraction); settings: [3H]SQ29548 10 nM, 25° C., 30 minutes, read-out: TXA2 receptor affinity Ki
T1 construct: The finally obtained sediment was used as a platelet membrane fraction; from tissue; host or cells: human platelets (membrane fraction from venous blood)
T1 sequence (P21731 1-343): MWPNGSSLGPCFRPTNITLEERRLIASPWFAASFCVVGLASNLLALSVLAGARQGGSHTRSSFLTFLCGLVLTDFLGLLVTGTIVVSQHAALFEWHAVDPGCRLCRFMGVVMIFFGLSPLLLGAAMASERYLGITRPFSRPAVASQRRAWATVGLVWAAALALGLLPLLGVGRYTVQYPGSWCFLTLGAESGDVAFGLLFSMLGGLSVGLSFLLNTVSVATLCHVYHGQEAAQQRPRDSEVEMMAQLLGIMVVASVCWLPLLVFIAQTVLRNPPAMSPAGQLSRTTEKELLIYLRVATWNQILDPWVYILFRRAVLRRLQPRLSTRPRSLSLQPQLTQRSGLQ
Experimental: The blood collected from the human antebrachial vein and 1/10 volume of ACD solution (85 mM trisodium citrate, 65 mM citric acid, 2% glucose) were mixed, and 8 ml of the mixture was dispensed to each of Spitz tubes. The platelet-rich plasma obtained by centrifugation at room temperature and 200×g for 10 minutes was further centrifuged at 1000×g for 15 minutes to obtain platelets. The thus-obtained platelets were centrifugally washed with a cleaning buffer (115 mM sodium chloride, 4.3 mM potassium dihydrogen phosphate, 5.5 mM glucose, 1 mM disodium EDTA, 10 μM […], pH 6.5), and 1 ml of a dissolution buffer (10 mM tris(hydroxymethyl)aminomethane, 5 mM magnesium chloride, 2 mM disodium EDTA, pH 7.4) was added to-the platelets, followed by three times of freezing in liquid nitrogen and melting at room temperature to crush the platelets. The crushed platelets were cleaned by three times of ultracentrifugation (40000×g, 20 minutes each) using […] ice-cold tris-hydrochloric acid buffer. The finally obtained sediment was used as a platelet membrane fraction.
As a TXA2 receptor ligand, tritium-labeled SQ29548 ([^3H]SQ29548) was used. As a solvent for receptor binding reaction, a 50 mM tris-hydrochloric acid buffer ([…] magnesium chloride, pH 7.4) was used. A saturation test was conducted by reaction of [^3H]SQ29548 (100 μl) at a final concentration of 3 to 100 nM and 0.1 mg protein/ml of platelet membrane fraction suspension (100 μl) at 25° C. for 30 minutes under shaking. […] Then, radioactivity was measured by a scintillation counter. Nonspecific binding to a substance other than the receptor was determined by reaction in the presence of SQ29548 at a final concentration of […]. In the competitive experiment, IC50 value and Hill coefficient of each of the test compounds were determined by pseudo-Hill plots, and the receptor dissociation constant (Ki value) was determined from the IC50 value and the receptor dissociation constant (Kd value) of [^3H]SQ29548, which was obtained by saturation experiment, according to the following equation: […]

PGI2 receptor = target: T2, PGI2 receptor (Homo sapiens, UniProt P43119); assay: PGI2 receptor binding experiment (tritium-labeled compound A, platelet membrane fraction); settings: tritium-labeled compound A 10 nM, 4° C., 60 minutes, read-out: PGI2 receptor affinity Ki
T2 construct: 0.1 mg protein/ml of platelet membrane fraction suspension (100 μl) at 4° C. for 60 minutes; from tissue; host or cells: platelets (membrane fraction)
T2 sequence (P43119 whole entry): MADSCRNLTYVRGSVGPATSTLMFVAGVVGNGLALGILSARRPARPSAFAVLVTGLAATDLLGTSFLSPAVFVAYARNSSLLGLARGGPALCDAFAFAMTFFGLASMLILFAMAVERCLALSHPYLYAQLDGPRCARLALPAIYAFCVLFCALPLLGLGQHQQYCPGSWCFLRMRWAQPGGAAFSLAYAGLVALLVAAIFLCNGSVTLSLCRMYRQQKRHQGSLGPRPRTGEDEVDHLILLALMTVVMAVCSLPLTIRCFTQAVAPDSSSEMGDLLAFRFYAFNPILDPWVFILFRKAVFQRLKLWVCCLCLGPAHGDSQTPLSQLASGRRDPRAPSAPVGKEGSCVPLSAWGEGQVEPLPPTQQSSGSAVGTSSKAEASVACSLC
Experimental: As a PGI2 receptor ligand, tritium-labeled (1R, 2R, 3aS, 8bS)-2,3,3a,8b-tetrahydro-2-hydroxy-1-[(E)-(3S, 4S)-3-hydroxy-4-methyl-1-octene-6-ynyl]-1H-cyclopenta [b]benzofuran-4-butanoic acid (compound A) was used. A saturation test was conducted by reaction of compound A (100 μl) at a final concentration of 3 to 100 nM and 0.1 mg protein/ml of platelet membrane fraction suspension (100 μl) at 4° C. for 60 minutes under shaking. Competitive experiment was carried out by reaction of a mixed solution (100 μl) of a test compound dissolved in an appropriate solvent and diluted and compound A at a final concentration of 10 nM, and 0.1 mg protein/ml of platelet membrane fraction suspension (100 μl) at 4° C. for 60 minutes under shaking. After the completion of reaction, the membrane fraction was recovered on a glass filter by a cell harvester, and washed with an ice-cold buffer. Then, radioactivity was measured by a scintillation counter. Nonspecific binding to a substance other than the receptor was determined by reaction in the presence of beraprost sodium at a final concentration of […]. In the competitive experiment, IC50 value and Hill coefficient of each of test compounds were determined by pseudo-Hill plots, and the receptor dissociation constant (Ki value) was determined from the IC50 value and the receptor dissociation constant (Kd value) of compound A, which was obtained by saturation experiment, according to the following equation:
Ki value=IC50 value/[1+(radioactive ligand concentration/Kd value)]

SMILES	melting point [°C]	pIC50 [1]	pIC50 [2]	pKi (TXA2 receptor)	pKi (PGI2 receptor)
COC(=O)COc1cccc2c1OCCN2CCSC(c1ccccc1)c1ccccc1	94 to 95	–	–	–	–
CC(SCCN1CCOc2c(OCC(=O)[O-])cccc21)(c1ccccc1)c1ccccc1.[Na+]	110	–	–	–	–
COC(=O)COc1cccc2c1OCCN2CCSC(C)(c1ccccc1)c1ccccc1 [Example 2, Methyl (4-(2-(1,1-diphenylethylthio)ethyl)-3,4-dihydro-2H-1,4-benzoxazin-8-yloxy)acetate]	101	–	–	–	–
O=C(O)COc1cccc2c1OCCN2CCSC(c1ccccc1)c1ccccc1 [Example 20, (4-(2-(diphenylmethylthio)ethyl)-3,4-dihydro-2H-1,4-benzoxazin-8-yloxy)acetic acid]	172.5	5.89	5.70	–	–
CC(SCCN1CCOc2c(OCC(=O)O)cccc21)(c1ccccc1)c1ccccc1 [Example 21, (4-(2-(1,1-diphenylethylthio)ethyl)-3,4-dihydro-2H-1,4-benzoxazin-8-yloxy)acetic acid]	161 to 161.5	6.26	5.74	7.30	6.37
O=C(O)COc1cccc2c1OCCN2CCOC(c1ccccc1)c1ccccc1 [Example 28, (4-(2-(diphenylmethoxy)ethyl)-3,4-dihydro-2H-1,4-benzoxazin-8-yloxy)acetic acid]	112 to 113	5.24	4.80	–	–
CC(OCCN1CCOc2c(OCC(=O)O)cccc21)(c1ccccc1)c1ccccc1 [Example 29, (4-(2-(1,1-diphenylethoxy)ethyl)-3,4-dihydro-2H-1,4-benzoxazin-8-yloxy)acetic acid]	108	5.26	4.80	–	–
CC(SCCN1CCCc2c(OCC(=O)O)cccc21)(c1ccccc1)c1ccccc1 [Example 34, (1-(2-(1,1-diphenylethylthio)ethyl)-1,2,3,4-tetrahydroquinolin-5-yloxy)acetic acid]	150.5 to 152	6.23	5.89	6.92	6.28
O=C(O)COc1cccc2c1OCC2CCSC(c1ccccc1)c1ccccc1 (stereo not shown) [Example 36, (3-(2-(diphenylmethylthio)ethyl)-2,3-dihydrobenzofuran-7-yloxy)acetic acid]	88 to 89	6.26	6.02	7.15	6.64
CC(SCCC1COc2c(OCC(=O)O)cccc21)(c1ccccc1)c1ccccc1 (stereo not shown) [Example 37, (3-(2-(1,1-diphenylethylthio)ethyl)-2,3-dihydrobenzofuran-7-yloxy)acetic acid]	65 to 67	6.31	5.74	–	–

Now from value to compound, other results behind:

melting point [°C]	SMILES	pIC50 [1]	pIC50 [2]	pKi (TXA2 receptor)	pKi (PGI2 receptor)
183 to 184	COC(=O)COc1cccc2c1OCC(=O)N2CC(=O)NC(c1ccccc1)c1ccccc1 [Example 12, Methyl (4-((diphenylmethylcarbamoyl)methyl)-3-oxo-3,4-dihydro-2H-1,4-benzoxazin-8-yloxy)acetate]	–	–	–	–
140 to 140.5	O=C(O)COc1cccc2c1OCCN2CCSC(c1ccccc1)(c1ccccc1)C(F)(F)F [Example 22, (4-(2-(1,1-diphenyl-2,2,2-trifluoroethylthio)ethyl)-3,4-dihydro-2H-1,4-benzoxazin-8-yloxy)acetic acid]	–	–	–	–
142 to 143	CC(SCCN1CCOc2c(OCC(=O)O)cccc21)(c1ccc(F)cc1)c1ccc(F)cc1 [Example 23, (4-(2-(1,1-bis-(4-fluorophenyl)ethylthio)-ethyl)-3,4-dihydro-2H-1,4-benzoxazin-8-yloxy)acetic acid]	–	–	–	–
114	CC(C)(SCCN1CCOc2c(OCC(=O)O)cccc21)c1ccccc1 [Example 24, (4-(2-(1-methyl-1-phenylethylthio)ethyl)-3,4-dihydro-2H-1,4-benzoxazin-8-yloxy)acetic acid]	–	–	–	–
127 to 131	O=C(O)COc1cccc2c1OCCN2CCSCc1ccccc1 [Example 25, (4-(2-(benzylthio)ethyl)-3,4-dihydro-2H-1,4-benzoxazin-8-yloxy) acetic acid]	–	–	–	–
138 to 139	CC(CSCCN1CCOc2c(OCC(=O)O)cccc21)(c1ccccc1)c1ccccc1 [Example 26, (4-(2-(2,2-diphenylpropylthio)ethyl)-3,4-dihydro-2H-1,4-benzoxazin-8-yloxy)acetic acid]	–	–	–	–
149	CC(SCCN1CCOc2c(OCC(=O)O)cccc21)(c1ccsc1)c1ccsc1 [Example 27]	–	–	–	–
106	CC(SCCN1C(=O)COc2c(OCC(=O)O)cccc21)(c1ccccc1)c1ccccc1 [Example 31, (4-(2-(1,1-diphenylethylthio)ethyl)-3-oxo-3,4-dihydro-2H-1,4-benzoxazin-8-yloxy)acetic acid]	–	–	–	–
232 to 234	O=C(O)COc1cccc2c1OCC(=O)N2CC(=O)NC(c1ccccc1)c1ccccc1 [Example 32, (4-((diphenylmethylcarbamoyl)methyl)-3-oxo-3,4-dihydro-2H-1,4-benzoxazin-8-yloxy)acetic acid]	–	–	–	–
110.1	CC(SCCN1C(=O)COc2c(CCC(=O)O)cccc21)(c1ccccc1)c1ccccc1 [Example 33, 3-(4-(2-(1,1-diphenylethylthio)ethyl)-3-oxo-3,4-dihydro-2H-1,4-benzoxazin-8-yl)propionic acid]	–	–	–	–
